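All cell lines were grown in 96-well plates and treated with compound for 48 hours. TGI marks complete inhibition of growth.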
Assays:
Test in all cases: DTP human tumour cell line panel, 48 h
A498 renal = tested on: A498 renal
MOLT-4 leukemia = tested on: MOLT-4 leukemia
HT29 colon = tested on: HT29 colon
MDA-MB-435 = tested on: MDA-MB-435
T-47D breast = tested on: T-47D breast
SK-OV-3 ovarian = tested on: SK-OV-3 ovarian
HCT-15 colon = tested on: HCT-15 colon
HOP-92 NSCLC = tested on: HOP-92 NSCLC
OVCAR-5 ovarian = tested on: OVCAR-5 ovarian
DU-145 prostate = tested on: DU-145 prostate

Compound	TGI (A498 renal)	TGI (MOLT-4 leukemia)	TGI (HT29 colon)	TGI (MDA-MB-435)	TGI (T-47D breast)	TGI (SK-OV-3 ovarian)	TGI (HCT-15 colon)	TGI (HOP-92 NSCLC)	TGI (OVCAR-5 ovarian)	TGI (DU-145 prostate)
O=C(CCC(=O)CC(O)(C(F)(F)F)C(F)(F)F)CC(O)(C(F)(F)F)C(F)(F)F	67.4 µM	> 100 µM	> 100 µM	> 100 µM	> 100 µM	> 100 µM	> 100 µM	49.4 µM	> 100 µM	> 100 µM
Fc1ccc(N=C/C=C/Nc2ccc(F)cc2)cc1	28.8 µM	38.5 µM	24.2 µM	20.8 µM	29.4 µM	28.8 µM	15.2 µM	33.1 µM	25.3 µM	26.7 µM
Cc1c(-c2ccccc2)nn2cc(-c3ccccc3)nnc12	> 100 µM	> 100 µM	> 100 µM	> 100 µM	> 100 µM	> 100 µM	44.5 µM	88.3 µM	> 100 µM	> 100 µM
CCCCCCCCCCCCc1ccc(S(=O)(=O)O)cc1.[Zn+2]	95.9 µM	> 100 µM	> 100 µM	> 100 µM	> 100 µM	> 100 µM	> 100 µM	> 100 µM	> 100 µM	> 100 µM
O=C(c1ccccc1)n1cc(-c2ccccc2)c2c(=O)[nH]cnc21	> 100 µM	> 100 µM	> 100 µM	> 100 µM	> 100 µM	> 100 µM	> 100 µM	> 100 µM	> 100 µM	> 100 µM
CSc1c(C#N)c(N)nc2c(N=Nc3ccc(Br)cc3)c(N)nn12	52.9 µM	27.3 µM	29 µM	25 µM	4.74 µM	38.1 µM	12 µM	18.9 µM	33.3 µM	14.9 µM
COc1ccc(NC(=O)CC(=O)n2nc(C)c(N=Nc3cccc(C)c3)c2C)cc1	> 100 µM	> 100 µM	> 100 µM	> 100 µM	> 100 µM	78.7 µM	> 100 µM	> 100 µM	> 100 µM	> 100 µM
COC(=O)C1=C(OC(=O)/C=C/c2ccccc2)C(C(=O)OC)[C@@]2(O)[C@@H](C(=O)OC)[C@H](C)C[C@@H]1[C@@H]2C(=O)OC (stereo not given in full)	36.7 µM	> 100 µM	> 100 µM	> 100 µM	84.4 µM	70.2 µM	37.6 µM	48 µM	46.1 µM	> 100 µM
Cc1cn(CCCCCCC2=NCCCN2)c(=O)[nH]c1=O	> 100 µM	> 100 µM	> 100 µM	> 100 µM	> 100 µM	> 100 µM	> 100 µM	> 100 µM	> 100 µM	> 100 µM
C=CC(OC(C)=O)c1ccc(OC(=O)C(C)C)c(OC)c1 (stereo not given)	31 µM	36.2 µM	6.09 µM	15.6 µM	21.9 µM	30.3 µM	20 µM	11.5 µM	6.29 µM	24.5 µM

From PubChem BioAssay (NCI)
